The results in this text go back to ChEMBL document CHEMBL1145204, “Carbonic anhydrase inhibitors: synthesis and inhibition of cytosolic/membrane-associated carbonic anhydrase isozymes I, II, and IX with sulfonamides incorporating hydrazino moieties” (J Med Chem, 2005).

As a reminder, the Ki is the dissociation constant of the complex between target and ligand, obtained from inhibition or displacement. Low values mean a stronger hold on the target, high ones a looser hold on the target.

The target in one experiment is Carbonic anhydrase 1 (Homo sapiens, UniProt P00915).
Carbonic anhydrase 1, sequence (P00915 whole entry): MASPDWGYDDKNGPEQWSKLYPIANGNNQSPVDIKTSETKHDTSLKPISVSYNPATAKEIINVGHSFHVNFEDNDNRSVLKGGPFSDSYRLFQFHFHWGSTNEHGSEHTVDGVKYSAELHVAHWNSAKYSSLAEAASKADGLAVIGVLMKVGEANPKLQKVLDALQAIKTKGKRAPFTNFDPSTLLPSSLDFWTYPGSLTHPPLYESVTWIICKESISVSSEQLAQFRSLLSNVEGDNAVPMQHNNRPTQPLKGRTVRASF
Description: Inhibitory activity against Carbonic anhydrase I
For `NNc1ccc(S(N)(=O)=O)cc1`, the Ki was 3900 nM.

For a further experiment, the target named is Carbonic anhydrase 9 (Homo sapiens, UniProt Q16790).
Description: Inhibitory activity against Carbonic anhydrase IX
For `NS(=O)(=O)c1ccc(C(=O)NNC(=O)Nc2ccc(Br)cc2)cc1`, the Ki was determined as 8.6 nM.

With `NS(=O)(=O)c1ccc(C(=O)NNC(=O)Nc2ccc(Oc3ccccc3)cc2)cc1`, the affinity, expressed as Ki, was 7.9 nM. Still for that read-out and setting: the result for `NS(=O)(=O)c1ccc(C(=O)NNC(=O)NS(=O)(=O)c2ccccc2)cc1` reads 35 nM; that for `NS(=O)(=O)c1ccccc1C(=O)NNC(=O)NS(=O)(=O)c1ccc(Cl)cc1`, 72 nM; that for `NS(=O)(=O)c1ccc(C(=O)NNC(=O)Nc2ccc(-c3ccccc3)cc2)cc1`, 5.4 nM. Still for that read-out and setting: the result for `NNC(=O)c1ccccc1S(N)(=O)=O` reads 547 nM. For the compound `Cc1ccccc1S(=O)(=O)NC(=O)NNC(=O)c1ccc(S(N)(=O)=O)cc1`, the Ki amounted to 32 nM. Same read-out and setting: with `CC(=O)c1ccc(NC(=O)NNC(=O)c2ccc(S(N)(=O)=O)cc2)cc1` the figure was 8.3 nM; with `NS(=O)(=O)c1ccc(C(=O)O)cc1` [CARZENIDE], 346 nM; with `Cc1ccc(S(=O)(=O)NC(=O)NNC(=O)c2ccccc2S(N)(=O)=O)cc1`, 70 nM.

Consider `NNc1ccc(S(N)(=O)=O)cc1F`, for which the Ki amounted to 136 nM. `COC(=O)c1ccccc1S(N)(=O)=O` displayed an inhibitory constant (Ki) of 680 nM. Consider `NS(=O)(=O)c1ccc(C(=O)NNC(=O)Nc2ccc(C34CC5CC(CC(C5)C3)C4)cc2)cc1`, for which the affinity, expressed as Ki, was 24 nM. `NS(=O)(=O)c1ccc(C(=O)NNC(=O)Nc2ccc(Cc3ccccc3)cc2)cc1` gave an inhibitory constant (Ki) of 7 nM. As for `Cc1ccccc1S(=O)(=O)NC(=O)NNC(=O)c1ccccc1S(N)(=O)=O`, the affinity corresponds to a Ki of 83 nM. Still for that read-out and setting: with `NS(=O)(=O)c1ccccc1C(=O)NNC(=O)NS(=O)(=O)c1ccccc1` the figure was 76 nM; with `NS(=O)(=O)c1ccc(C(=O)NNC(=O)Nc2ccc(Cl)c(Cl)c2)cc1`, 7.9 nM. Compound `NNc1ccc(S(N)(=O)=O)cc1Cl` yielded a Ki of 149 nM. Same read-out and setting: with `NS(=O)(=O)c1ccc(C(=O)NNC(=O)NS(=O)(=O)c2ccc(F)cc2)cc1` the figure was 6.2 nM.

In turn, `NS(=O)(=O)c1ccc(C(=O)NNC(=O)NC2c3ccccc3-c3ccccc32)cc1` displayed a Ki of 13 nM.

Compound `NS(=O)(=O)c1ccccc1C(=O)NNC(=O)NS(=O)(=O)c1ccc(F)cc1` had a Ki of 64 nM. As to `Cc1ccc(S(=O)(=O)NC(=O)NNC(=O)c2ccc(S(N)(=O)=O)cc2)cc1`, the inhibition constant (Ki) was determined as 5.8 nM. Regarding `NS(=O)(=O)c1ccc(C(=O)NNC(=O)NS(=O)(=O)c2ccc(Cl)cc2)cc1`, the Ki turned out to be 5.4 nM.
